Results published in patent EP4692094A1 (Beijing Konruns Pharmaceutical Co., Ltd., priority 2023, dated 2024).

biological target: T1, KAT6A (Homo sapiens, UniProt Q92794); assay: Enzymatic activity assay for KAT6A acetyltransferase (TR-FRET, acetylation of histone substrate H3); format: biochemical
T1 construct: purchased active motife (Active Motif) 81223
Protocol: The acetylation effect of KAT6A on histone substrate H3 was determined using the TR-FRET (time-resolved fluorescence resonance energy transfer) method.
• 1) The compounds prepared in the examples of the present disclosure were each dissolved in dimethylsulfoxide to give solutions at a concentration of 10 mmol/L, and then the solutions were diluted to 0.2 mmol/L, i.e., 1 µL of the compound was added to 49 µL of DMSO, and 3-fold dilution was performed to give 10 concentrations. • 2) 50 nL of the test compounds (example compounds) were transferred to 384 reaction plates using Echo, two replicates for each compound, and the plates were centrifuged at a rotation speed of 1000 rpm for 1 min, the final concentration of dimethylsulfoxide (DMSO) being 0.5%. • 3) 2.5 µL of the reaction mixtures obtained in step 2 was added to the 384 reaction plates in step 2), and the plates were centrifuged at 1000 rpm for 1 min and incubated at 25 °C for 10 min. • 4) 2.5 µL of Bio-H3&AcCOA (acetyl-CoA) reaction solution was added to the 384 reaction plates in step 3), and the plates were centrifuged at a rotation speed of 1000 rpm for 1 min and incubated at 25 °C for 90 min. • 5) 5 µL of Eu-Ab& Ulight-SA detection solution was added to the 384 reaction plates in step 4), and the plates were centrifuged at 1000 rpm for 1 min and incubated at 25 °C for 60 min. • 6) The HTRF […] signals were read using a BMG high-throughput drug-screening multi-mode microplate reader.
The acetylation level of the histone H3 was analyzed by the GraphPad Prism 8 software. The reading of the negative control (0.5% DMSO wells) was set as 0% inhibition rate, and the reading of the positive control (wells with the highest concentration of the control compound) was set as 100% inhibition rate. The inhibition rates were calculated, and then IC50 values (half maximal inhibitory concentration) of test compounds were obtained by using a software nonlinear fitting formula; [formula]
Datapositive control: mean of positive control well values; Datanegative control: mean of negative control well values. Table 3. Enzymatic inhibitory activity of example compounds

T1 sequence (Q92794 whole entry): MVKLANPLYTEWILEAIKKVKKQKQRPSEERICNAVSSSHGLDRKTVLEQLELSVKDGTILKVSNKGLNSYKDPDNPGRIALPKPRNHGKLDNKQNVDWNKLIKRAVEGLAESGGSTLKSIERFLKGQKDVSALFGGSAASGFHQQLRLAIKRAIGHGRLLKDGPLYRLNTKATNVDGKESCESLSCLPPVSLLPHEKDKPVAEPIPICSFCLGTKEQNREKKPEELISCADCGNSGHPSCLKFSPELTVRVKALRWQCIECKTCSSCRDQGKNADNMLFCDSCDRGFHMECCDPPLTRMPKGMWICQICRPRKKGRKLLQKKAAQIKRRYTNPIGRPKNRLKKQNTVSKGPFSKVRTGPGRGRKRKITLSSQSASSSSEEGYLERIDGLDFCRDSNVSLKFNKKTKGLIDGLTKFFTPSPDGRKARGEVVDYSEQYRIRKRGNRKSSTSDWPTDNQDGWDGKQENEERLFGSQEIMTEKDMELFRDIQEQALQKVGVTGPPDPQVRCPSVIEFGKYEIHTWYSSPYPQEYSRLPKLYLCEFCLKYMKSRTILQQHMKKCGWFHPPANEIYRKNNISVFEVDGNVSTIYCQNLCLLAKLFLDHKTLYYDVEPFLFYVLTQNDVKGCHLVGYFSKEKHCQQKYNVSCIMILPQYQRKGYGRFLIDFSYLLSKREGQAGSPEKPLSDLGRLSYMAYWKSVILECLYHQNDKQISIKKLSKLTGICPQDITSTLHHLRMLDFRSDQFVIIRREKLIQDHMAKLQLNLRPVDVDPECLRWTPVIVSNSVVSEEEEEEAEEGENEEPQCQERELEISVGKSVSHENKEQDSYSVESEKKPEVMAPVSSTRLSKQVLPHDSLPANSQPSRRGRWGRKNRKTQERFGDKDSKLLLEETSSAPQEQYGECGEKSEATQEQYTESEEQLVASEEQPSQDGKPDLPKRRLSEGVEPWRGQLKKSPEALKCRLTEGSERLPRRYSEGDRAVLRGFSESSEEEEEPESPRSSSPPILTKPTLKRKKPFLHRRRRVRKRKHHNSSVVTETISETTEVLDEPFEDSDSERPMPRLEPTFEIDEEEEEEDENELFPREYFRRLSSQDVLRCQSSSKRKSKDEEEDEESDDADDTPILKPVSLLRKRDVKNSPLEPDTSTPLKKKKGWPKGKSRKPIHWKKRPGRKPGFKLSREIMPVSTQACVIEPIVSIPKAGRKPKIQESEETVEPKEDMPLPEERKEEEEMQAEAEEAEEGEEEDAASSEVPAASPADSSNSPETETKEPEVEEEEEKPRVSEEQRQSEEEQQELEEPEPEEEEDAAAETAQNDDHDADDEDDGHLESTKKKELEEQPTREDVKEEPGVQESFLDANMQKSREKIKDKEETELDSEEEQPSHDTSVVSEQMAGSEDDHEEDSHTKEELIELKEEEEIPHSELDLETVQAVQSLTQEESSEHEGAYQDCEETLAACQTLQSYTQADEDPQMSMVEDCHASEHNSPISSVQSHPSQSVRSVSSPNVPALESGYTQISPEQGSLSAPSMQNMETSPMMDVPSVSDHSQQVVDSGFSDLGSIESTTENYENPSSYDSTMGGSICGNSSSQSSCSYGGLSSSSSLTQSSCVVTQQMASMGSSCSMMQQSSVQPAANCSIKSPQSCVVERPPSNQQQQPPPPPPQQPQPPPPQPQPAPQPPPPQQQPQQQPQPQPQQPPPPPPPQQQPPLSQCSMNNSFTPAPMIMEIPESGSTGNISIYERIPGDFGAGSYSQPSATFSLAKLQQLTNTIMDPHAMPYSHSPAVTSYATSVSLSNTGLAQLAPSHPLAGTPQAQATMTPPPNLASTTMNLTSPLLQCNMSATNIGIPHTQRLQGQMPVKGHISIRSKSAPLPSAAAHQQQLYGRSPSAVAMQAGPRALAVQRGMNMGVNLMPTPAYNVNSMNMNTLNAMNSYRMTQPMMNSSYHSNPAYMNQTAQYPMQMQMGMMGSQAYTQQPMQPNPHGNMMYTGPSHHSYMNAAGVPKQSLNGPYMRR

Compound	IC50 [nM]
COc1nc(Cn2cccn2)cc2onc(NS(=O)(=O)c3cccc4c3OCCC4)c12 [Example 7, N-(6-((1H-Pyrazol-1-yl)methyl)-4-methoxyisoxazolo[4,5-c]pyridin-3-yl)-3,4-dihydro-1H-benzopyran-8-sulfonamide]	5.68
COc1nc(Cn2nccn2)cc2onc(NS(=O)(=O)c3cccc4c3OCC4)c12 [Example 12, N-(6-((2H-1,2,3-Triazol-2-yl)methyl)-4-methoxyisoxazolo[4,5-c]pyridin-3-yl)-2,3-dihydrobenzofuran-7-sulfonamide]	66.7
COc1nc(C(F)(F)n2cccn2)cc2onc(NS(=O)(=O)c3cccc4c3OCC4)c12 [Example 17, N-(6-(Difluoro(1H-pyrazol-1-yl)methyl)-4-methoxyisoxazolo[4,5-c]pyridin-3-yl)-2,3-dihydrobenzofuran-7-sulfonamide]	8.67
COc1nc(C(F)n2cccn2)cc2onc(NS(=O)(=O)c3cccc4c3OCC4)c12 (centres unmarked) [Example 18, N-(6-(Fluoro(1H-pyrazol-1-yl)methyl)-4-methoxyisoxazolo[4,5-c]pyridin-3-yl)-2,3-dihydrobenzofuran-7-sulfonamide]	7.23
COc1nc(Cn2nccn2)cc2onc(NS(=O)(=O)c3cccc4c3ccn4C)c12 [Example 21, N-(6-((2H-1,2,3-Triazol-2-yl)methyl)-4-methoxyisoxazolo[4,5-c]pyridin-3-yl)-1-methyl-1H-indole-4-sulfonamide]	75.9
COc1nc(Cn2cccn2)cc2onc(NS(=O)(=O)c3cccc4c3CCC4)c12 [Example 26, N-(6-((1H-Pyrazol-1-yl)methyl)-4-methoxyisoxazolo[4,5-c]pyridin-3-yl)-2,3-dihydro-1H-indene-4-sulfonamide]	21.8
COc1nc(Cn2nccn2)cc2onc(NS(=O)(=O)c3cccc4c3OCCO4)c12 [Example 29, N-(6-((2H-1,2,3-Triazol-2-yl)methyl)-4-methoxyisoxazolo[4,5-c]pyridin-3-yl)-2,3-dihydrobenzo[b][1,4]dioxine-5-sulfonamide]	1.57
COc1nc(Cc2cocn2)cc2onc(NS(=O)(=O)c3cccc4c3OCCO4)c12 [Example 31, N-(4-Methoxy-6-(oxazol-4-ylmethyl)isoxazolo[4,5-c]pyridin-3-yl)-2,3-dihydrobenzo[b][1,4]dioxine-5-sulfonamide]	68.6
COc1nc(Cc2ccccn2)cc2onc(NS(=O)(=O)c3cccc4c3OCCO4)c12 [Example 32, N-(4-Methoxy-6-(pyridin-2-ylmethyl)isoxazolo[4,5-c]pyridin-3-yl)-2,3-dihydrobenzo[b][1,4]dioxine-5-sulfonamide]	34.7
C#Cc1ccc(S(=O)(=O)Nc2noc3cc(Cn4cccn4)nc(OC)c23)c2c1CCO2 [Example 33, N-(6-((1H-Pyrazol-1-yl)methyl)-4-methoxyisoxazolo[4,5-c]pyridin-3-yl)-4-ethynyl-2,3-dihydrobenzofuran-7-sulfonamide]	3.13
COc1cc2c(cc1S(=O)(=O)Nc1noc3cc(Cn4nccn4)nc(OC)c13)CCCC2 [Example 34, N-(6-((2H-1,2,3-Triazol-2-yl)methyl)-4-methoxyisoxazolo[4,5-c]pyridin-3-yl)-3-methoxy-5,6,7,8-tetrahydronaphthalene-2-sulfonamide]	12.6
COc1nc(Cn2cccn2)cc2onc(NS(=O)(=O)c3cccc4cccnc34)c12 [Example 46]	1.67
COc1nc(Cn2cccn2)cc2onc(NS(=O)(=O)c3cccc4occc34)c12 [Example 47, N-(6-((1H-Pyrazol-1-yl)methyl)-4-methoxyisoxazolo[4,5-c]pyridin-3-yl)benzofuran-4-sulfonamide]	4.67
COc1nc(Cn2cccn2)cc2onc(NS(=O)(=O)c3cccc4nc(C)oc34)c12 [Example 48, N-(6-((1H-Pyrazol-1-yl)methyl)-4-methoxyisoxazolo[4,5-c]pyridin-3-yl)-2-methylbenzo[d]oxazole-7-sulfonamide]	22.7
COc1nc(Cn2cccn2)cc2onc(NS(=O)(=O)c3cccc4ccn(C)c34)c12 [Example 49, N-(6-((1H-Pyrazol-1-yl)methyl)-4-methoxyisoxazolo[4,5-c]pyridin-3-yl)-1-methyl-1H-indole-7-sulfonamide]	67.8
COc1nc(Cn2cccn2)cc2onc(NS(=O)(=O)c3ccc4c(c3)CCCO4)c12 [Example 50, N-(6-((1H-Pyrazol-1-yl)methyl)-4-methoxyisoxazolo[4,5-c]pyridin-3-yl)-3,4-dihydro-1H-benzopyran-6-sulfonamide]	8.67
COc1nc(Cn2cccn2)cc2onc(NS(=O)(=O)c3cccc4c3OC(F)(F)O4)c12 [Example 51, N-(6-((1H-Pyrazol-1-yl)methyl)-4-methoxyisoxazolo[4,5-c]pyridin-3-yl)-2,2-difluorobenzodioxole-4-sulfonamide]	18.2
COc1nc(Cn2cccn2)cc2onc(NS(=O)(=O)c3ccc4oc(C)nc4c3)c12 [Example 52, N-(6-((1H-Pyrazol-1-yl)methyl)-4-methoxyisoxazolo[4,5-c]pyridin-3-yl)-2-methylbenzo[d]oxazole-5-sulfonamide]	34.3
COc1nc(Cn2cccn2)cc2onc(NS(=O)(=O)c3ccc4occc4c3)c12 [Example 53, N-(6-((1H-Pyrazol-1-yl)methyl)-4-methoxyisoxazolo[4,5-c]pyridin-3-yl)benzofuran-5-sulfonamide]	4.56
COc1nc(Cn2cccn2)cc2onc(NS(=O)(=O)c3ccc4c(c3)CN(C)C(=O)O4)c12 [Example 54, N-(6-((1H-Pyrazol-1-yl)methyl)-4-methoxyisoxazolo[4,5-c]pyridin-3-yl)-3-methyl-2-oxo-3,4-dihydro-2H-benzoxazine-6-sulfonamide]	110
COc1nc(Cn2cccn2)cc2onc(NS(=O)(=O)c3ccc4ncsc4c3)c12 [Example 55, N-(6-((1H-Pyrazol-1-yl)methyl)-4-methoxyisoxazolo[4,5-c]pyridin-3-yl)benzothiazole-6-sulfonamide]	8.79
COc1ccc2ccn(C)c2c1S(=O)(=O)Nc1noc2cc(Cn3cccn3)nc(OC)c12 [Example 56, N-(6-((1H-Pyrazol-1-yl)methyl)-4-methoxyisoxazolo[4,5-c]pyridin-3-yl)-6-methoxy-1-methyl-1H-indole-7-sulfonamide]	16.3
COc1ccc2c(c1S(=O)(=O)Nc1noc3cc(Cn4cccn4)nc(OC)c13)OCO2 [Example 58, N-(6-((1H-Pyrazol-1-yl)methyl)-4-methoxyisoxazolo[4,5-c]pyridin-3-yl)-5-methoxy-1,3-benzodioxole-4-sulfonamide]	0.66
COc1c(Cl)c2c(c(OC)c1S(=O)(=O)Nc1noc3cc(Cn4cccn4)nc(OC)c13)CCC2 [Example 63, N-(6-((1H-Pyrazol-1-yl)methyl)-4-methoxyisoxazolo[4,5-c]pyridin-3-yl)-7-chloro-4,6-dimethoxy-2,3-dihydro-1H-indene-5-sulfonamide]	5.98
COc1ccc(S(=O)(=O)Nc2noc3cc(Cn4cccn4)nc(OC)c23)c2occc12 [Example 64, N-(6-((1H-Pyrazol-1-yl)methyl)-4-methoxyisoxazolo[4,5-c]pyridin-3-yl)-4-methoxybenzofuran-7-sulfonamide]	8.85
COc1ccc2cc(C)oc2c1S(=O)(=O)Nc1noc2cc(Cn3cccn3)nc(OC)c12 [Example 65, N-(6-((1H-Pyrazol-1-yl)methyl)-4-methoxyisoxazolo[4,5-c]pyridin-3-yl)-6-methoxy-2-methylbenzofuran-7-sulfonamide]	2.01
